Source: patent US4195171A, “Derivatives of an antibiotic XK-62-2 and process for the production thereof” (Abbott Laboratories, priority 1975, dated 1980)
In brackets after ≈: the same amount, converted by molar mass. Where two headings read alike, the source gives them in different places.

Experiments:
Assay in all cases: Antibacterial spectrum, MIC by agar dilution method
Format in all cases: cell-based
Escherichia coli KY 8320 = conditions: KY8320, pH 7.2, strain produces neomycinkanamycin phosphotransferase Type I, read-out: Minimum Inhibitory Concentration
Description: (§1) XK-62-2, 1-N-[L-(-)-α-hydroxy-γ-aminobutyryl] XK-62-2, Compounds (I-1), (I-2), (II-1) and (II-2) against various Gram-negative and Gram-positive bacteria determined by agar dilution method at pH 7.2.
(§2) ^3 produces neomycinkanamycin phosphotransferase Type I

Escherichia coli KY 8349 = conditions: KY8349, pH 7.2, strain produces neomycinkanamycin phosphotransferase Type I, read-out: Minimum Inhibitory Concentration
Description: as §1, §2

[1] = tested on: Pseudomonas aeruginosa KY 8518; conditions: KY8518, pH 7.2, strain produces neomycinkanamycin phosphotransferase Type I, read-out: Minimum Inhibitory Concentration
Description: as §1, §2

[2] = tested on: Pseudomonas aeruginosa KY 8512; conditions: KY8512, pH 7.2, strain produces neomycinkanamycin phosphotransferase Type I and Type II, read-out: Minimum Inhibitory Concentration
Description: as §1
(§3) ^6 produces neomycinkanamycin phosphotransferase Type I and Type II

[3] = tested on: Pseudomonas aeruginosa KY 8519
Description: as §1, §3

Escherichia coli KY 8348 = conditions: KY8348, pH 7.2, strain produces gentamicin acetyltransferase Type I, read-out: Minimum Inhibitory Concentration
Description: as §1
(§4) ^2 produces gentamicin acetyltransferase Type I

[4] = tested on: Pseudomonas aeruginosa KY 8511; conditions: KY8511, pH 7.2, strain produces gentamicin acetyltransferase Type I, read-out: Minimum Inhibitory Concentration
Description: as §1, §4

[5] = tested on: Pseudomonas aeruginosa KY 8563; conditions: KY8563, agar dilution, pH 7.2, strain produces gentamicin acetyltransferase Type III, read-out: Minimum Inhibitory Concentration
Description: as §1
^7 produces gentamicin acetyltransferase Type III

Escherichia coli KY 8321 = conditions: KY8321, pH 7.2, strain produces gentamicin adenyltransferase and neomycinkanamycin phosphotransferase Type II, read-out: Minimum Inhibitory Concentration
Description: as §1
^5 produces gentamicin adenyltransferase and neomycinkanamycin
phosphotransferase Type II

[6] = tested on: Escherichia coli KY Z-338; conditions: KYZ338, pH 7.2, strain produces gentamicin adenyltransferase, read-out: Minimum Inhibitory Concentration
Description: as §1
(§5) ^4 produces gentamicin adenyltransferase

[7] = tested on: Klebsiella pneumoniae Y-58; conditions: Y58, pH 7.2, strain produces gentamicin adenyltransferase, read-out: Minimum Inhibitory Concentration
Description: as §1, §5

[8] = tested on: Klebsiella pneumoniae Y-60; conditions: Y60, pH 7.2, strain produces gentamicin adenyltransferase, read-out: Minimum Inhibitory Concentration
Description: as §1, §5

[9] = tested on: Pseudomonas aeruginosa KY 8516; conditions: KY8516, agar dilution, pH 7.2, strain produces kanamycin acetyltransferase, read-out: Minimum Inhibitory Concentration
Description: as §1
(§6) ^1 produces kanamycin acetyltransferase

[10] = tested on: Pseudomonas aeruginosa KY 8510; conditions: KY8510, agar dilution, pH 7.2, strain produces kanamycin acetyltransferase, read-out: Minimum Inhibitory Concentration
Description: as §1, §6

[11] = tested on: Escherichia coli KY Z-343; conditions: KYZ343, pH 7.2, strain produces kanamycin acetyltransferase, read-out: Minimum Inhibitory Concentration
Description: as §1, §6

[12] = tested on: Serratia marcescens POE 1065; conditions: POE1065, agar dilution, pH 7.2, strain produces kanamycin acetyltransferase, read-out: Minimum Inhibitory Concentration
Description: as §1, §6

[13] = tested on: Staphylococcus aureus Smith; conditions: pH 7.2, read-out: Minimum Inhibitory Concentration
Description: as §1

[14] = tested on: Salmonella typhimurium E-9; conditions: Salmonella enterica, pH 7.2, read-out: Minimum Inhibitory Concentration
Description: as §1

Proteus rettgeri KY 4288 = conditions: Providencia rettgeri, KY4288, pH 7.2, read-out: Minimum Inhibitory Concentration
Description: as §1

[15] = tested on: Pseudomonas aeruginosa No. 12; conditions: pH 7.2, read-out: Minimum Inhibitory Concentration
Description: as §1

Proteus mirabilis 1287 = conditions: pH 7.2, read-out: Minimum Inhibitory Concentration
Description: as §1

Proteus vulgaris 6897 = conditions: pH 7.2, read-out: Minimum Inhibitory Concentration
Description: as §1

[16] = tested on: Shigella sonnei ATCC 9290; conditions: ATCC9290, pH 7.2, read-out: Minimum Inhibitory Concentration
Description: as §1

[17] = tested on: Salmonella enteritidis G-14; conditions: Salmonella enterica, agar dilution, pH 7.2, read-out: Minimum Inhibitory Concentration
Description: as §1

[18] = tested on: Pseudomonas aeruginosa BMH 10; conditions: BMH10, pH 7.2, read-out: Minimum Inhibitory Concentration
Description: as §1

Serratia sp T-55 = tested on: Serratia sp T-55
Description: as §1

[19] = tested on: Klebsiella pneumoniae No. 8045; conditions: pH 7.2, read-out: Minimum Inhibitory Concentration
Description: as §1

[20] = tested on: Staphylococcus aureus 209 P; conditions: pH 7.2, read-out: Minimum Inhibitory Concentration
Description: as §1

Proteus morganii KY 4298 = conditions: Morganella morganii, KY4298; agar dilution, pH 7.2; read-out: Minimum Inhibitory Concentration
Description: as §1

Escherichia coli Juhl = conditions: agar dilution, pH 7.2, read-out: Minimum Inhibitory Concentration
Description: as §1

Escherichia coli T-5 = conditions: T5, agar dilution, pH 7.2, read-out: Minimum Inhibitory Concentration
Description: as §1

Escherichia coli T-2 = conditions: T2, pH 7.2, read-out: Minimum Inhibitory Concentration
Description: as §1

SMILES	MIC (Escherichia coli KY 8320) [µg/mL]	MIC (Escherichia coli KY 8349) [µg/mL]	MIC [1] [µg/mL]	MIC [2] [µg/mL]	MIC (Escherichia coli KY 8348) [µg/mL]	MIC [4] [µg/mL]	MIC [5] [µg/mL]	MIC (Escherichia coli KY 8321) [µg/mL]	MIC [6] [µg/mL]	MIC [7] [µg/mL]	MIC [8] [µg/mL]	MIC [9] [µg/mL]	MIC [10] [µg/mL]	MIC [11] [µg/mL]	MIC [12] [µg/mL]	MIC [13] [µg/mL]	MIC [14] [µg/mL]	MIC (Proteus rettgeri KY 4288) [µg/mL]	MIC [15] [µg/mL]	MIC (Proteus mirabilis 1287) [µg/mL]	further results
CNCC1CCC(N)C(OC2C(N)CC(NC(=O)C(O)CN)C(OC3OCC(C)(O)C(NC)C3O)C2O)O1 (racemic) [1-N-(DL-α-hydroxy-β-aminopropionyl) XK-62-2, reference compound]	0.4 (≈ 0.726 µM)	0.1 (≈ 0.182 µM)	1.56 (≈ 2.83 µM)	1.56 (≈ 2.83 µM)	0.2 (≈ 0.363 µM)	1.56 (≈ 2.83 µM)	3.12 (≈ 5.67 µM)	0.4 (≈ 0.726 µM)	0.2 (≈ 0.363 µM)	0.4 (≈ 0.726 µM)	0.4 (≈ 0.726 µM)	3.12 (≈ 5.67 µM)	3.12 (≈ 5.67 µM)	0.2 (≈ 0.363 µM)	0.78 (≈ 1.42 µM)	0.2 (≈ 0.363 µM)	0.4 (≈ 0.726 µM)	1.56 (≈ 2.83 µM)	0.78 (≈ 1.42 µM)	12.5 (≈ 22.7 µM)	MIC ([3]; KY8519, agar dilution, pH 7.2, strain produces neomycinkanamycin phosphotransferase Type I and Type II, read-out: Minimum Inhibitory Concentration): 6.25 µg/mL (≈ 11.4 µM); MIC (Proteus vulgaris 6897): 12.5 µg/mL (≈ 22.7 µM); MIC [16]: 0.78 µg/mL (≈ 1.42 µM); MIC [17]: 6.25 µg/mL (≈ 11.4 µM); MIC [18]: 0.4 µg/mL (≈ 0.726 µM); MIC (Serratia sp T-55; T55, agar dilution, pH 7.2, read-out: Minimum Inhibitory Concentration): 1.56 µg/mL (≈ 2.83 µM); MIC [19]: 0.78 µg/mL (≈ 1.42 µM); MIC [20]: 0.4 µg/mL (≈ 0.726 µM); MIC (Proteus morganii KY 4298): 0.78 µg/mL (≈ 1.42 µM); MIC (Escherichia coli Juhl): 0.78 µg/mL (≈ 1.42 µM); MIC (Escherichia coli T-5): 0.78 µg/mL (≈ 1.42 µM); MIC (Escherichia coli T-2): 0.4 µg/mL (≈ 0.726 µM)
CC1(O)COC(OC2C(NC(=O)C(O)CN)CC(N)C(OC3OC(CN)CCC3N)C2O)C(O)C1N (racemic) [Compound I-1, 3"-N, 6'-N-didemethyl-1-N-(DL-α-hydroxy-β-aminopropionyl) XK-62-2]	0.78 (≈ 1.49 µM)	0.4 (≈ 0.765 µM)	0.78 (≈ 1.49 µM)	0.78 (≈ 1.49 µM)	0.4 (≈ 0.765 µM)	0.78 (≈ 1.49 µM)	1.56 (≈ 2.99 µM)	1.56 (≈ 2.99 µM)	0.78 (≈ 1.49 µM)	0.78 (≈ 1.49 µM)	0.78 (≈ 1.49 µM)	50 (≈ 95.7 µM)	12.5 (≈ 23.9 µM)	0.4 (≈ 0.765 µM)	50 (≈ 95.7 µM)	0.2 (≈ 0.383 µM)	0.78 (≈ 1.49 µM)	0.78 (≈ 1.49 µM)	0.4 (≈ 0.765 µM)	12.5 (≈ 23.9 µM)	MIC ([3]; KY8519, pH 7.2, read-out: Minimum Inhibitory Concentration): 3.12 µg/mL (≈ 5.97 µM); MIC (Proteus vulgaris 6897): 6.25 µg/mL (≈ 12 µM); MIC [16]: 3.12 µg/mL (≈ 5.97 µM); MIC [17]: 6.25 µg/mL (≈ 12 µM); MIC [18]: 0.4 µg/mL (≈ 0.765 µM); MIC (Serratia sp T-55; T55, pH 7.2, read-out: Minimum Inhibitory Concentration): 3.12 µg/mL (≈ 5.97 µM); MIC [19]: 0.4 µg/mL (≈ 0.765 µM); MIC [20]: 0.2 µg/mL (≈ 0.383 µM); MIC (Proteus morganii KY 4298): 1.56 µg/mL (≈ 2.99 µM); MIC (Escherichia coli Juhl): 1.56 µg/mL (≈ 2.99 µM); MIC (Escherichia coli T-5): 1.56 µg/mL (≈ 2.99 µM); MIC (Escherichia coli T-2): 1.56 µg/mL (≈ 2.99 µM)
